The target of assay [1] is T1, human GPR120 (Homo sapiens, UniProt Q5NUL3).
T1 construct: host or cells: CHO-K1
Put plainly: GPR120 β-Arrestin Recruitment Assay (PathHunter, CHO-K1 cells). It counts as cell-based. The conditions noted are these: pEC50=−log(EC50) from curve fit; CHO-K1 cells, 90 min incubation; read-out: β-Arr pEC50 (converted). The text has this: This in vitro assay tests compounds' ability to activate intracellular signaling via 3-Arrestin recruitment to heterologously expressed human GPR120. This functional cellular assay utilizes enzyme fragment complementation with β-galactosidlase (β-gal) as a functional reporter (DiscoveRx PathlHunter® β-Arrestin assay platform). The human (GPR120 receptor (GenBank accession Number NM_181745) was fused in frame with the small enzyme fragment ProLink™ and co-expressed in CHO-K1 cells with a fusion protein of β-Arrestin 2 and the larger, N-terminal deletion mutant of β-gal. Activation by a GPR120 agonist stimulates binding of β-arrestin to the ProLink-tagged GPCR and forces complementation of the two enzyme fragments, resulting in the formation of an active β-gal enzyme. This interaction leads to an increase in enzyme activity that can be measured using chemiluminescent PathHunter® Detection Reagents.
One day prior to the assay, cells were seeded in a total volume of 20 μl of growth medium into white walled 384-well microplates and incubated at 37° C./5% CO2 overnight. On the day of the assay, growth medium was removed and 20 μl assay buffer (HBSS+10 mM HEPES+0.1% heat-inactivated BSA) were added to each well.
Test compounds were dissolved in 100% DMSO to a concentration of 10 mM to provide stock solutions. Serial dilutions were performed from stock solutions into assay buffer to obtain intermediate concentrations of 5-fold higher than the concentrations to be tested. 5 μl of the 5× compound solutions were added to the cells and the assay plates were incubated at 37° C. for 90 minutes. The final concentration of compounds tested in the assay ranged from 1.5 nM to 100 μM. Following incubation, 12.5 μl of PathHunter® detection reagent were added to each well, and plates were incubated at room temperature for 60 minutes. Chemiluminescence was read using an EnVision plate reader (PerkinElmer), raw data were expressed as relative light units (RLU).
(§1) To determine agonist potencies (EC50 values), non-linear least-squares curve fits of the raw data (RLU) were performed in the GraphPad Prism software package, using the 4-parameter model with variable Hill Slope:
Reported below in Table 1 are pEC50 values (pEC50=−log(EC50) from curve fit) for compounds of Formula I in this assay, β-Arr pEC50 Alternatively, percent activation at a single concentration is reported.
(In general: Recruitment of arrestin is a read-out of receptor activation apart from second messengers.)
T1 sequence (Q5NUL3 1-377 isoform Q5NUL3-1): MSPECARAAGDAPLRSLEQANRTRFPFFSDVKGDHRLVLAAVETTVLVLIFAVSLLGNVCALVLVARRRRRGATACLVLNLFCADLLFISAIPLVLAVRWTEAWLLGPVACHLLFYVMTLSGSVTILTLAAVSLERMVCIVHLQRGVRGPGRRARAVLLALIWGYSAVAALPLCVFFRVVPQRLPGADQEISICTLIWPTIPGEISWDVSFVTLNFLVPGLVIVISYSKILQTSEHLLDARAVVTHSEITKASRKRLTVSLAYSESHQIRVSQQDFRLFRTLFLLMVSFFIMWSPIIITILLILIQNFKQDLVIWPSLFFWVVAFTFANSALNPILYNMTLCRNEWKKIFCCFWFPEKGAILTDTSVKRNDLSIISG
T1 sequence (P32121 whole entry partner): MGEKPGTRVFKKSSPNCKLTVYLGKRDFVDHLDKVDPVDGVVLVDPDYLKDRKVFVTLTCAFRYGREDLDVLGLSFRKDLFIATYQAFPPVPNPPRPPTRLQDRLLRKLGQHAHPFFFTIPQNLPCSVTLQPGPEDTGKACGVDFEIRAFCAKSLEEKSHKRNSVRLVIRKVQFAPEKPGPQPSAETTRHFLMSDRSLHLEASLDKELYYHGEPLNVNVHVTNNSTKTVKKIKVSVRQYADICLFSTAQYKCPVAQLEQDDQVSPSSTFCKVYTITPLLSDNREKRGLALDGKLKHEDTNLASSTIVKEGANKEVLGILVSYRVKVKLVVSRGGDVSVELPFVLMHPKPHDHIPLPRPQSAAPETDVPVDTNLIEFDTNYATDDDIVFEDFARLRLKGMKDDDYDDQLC

The target in assay [2] is T2, human GPR120 (Homo sapiens, UniProt Q5NUL3).
T2 construct: expressed in transfected cells; host or cells: CHO-K1 coexpressing Gα16 and mitochondrial apoaequorin
T2 sequence (Q5NUL3 1-361): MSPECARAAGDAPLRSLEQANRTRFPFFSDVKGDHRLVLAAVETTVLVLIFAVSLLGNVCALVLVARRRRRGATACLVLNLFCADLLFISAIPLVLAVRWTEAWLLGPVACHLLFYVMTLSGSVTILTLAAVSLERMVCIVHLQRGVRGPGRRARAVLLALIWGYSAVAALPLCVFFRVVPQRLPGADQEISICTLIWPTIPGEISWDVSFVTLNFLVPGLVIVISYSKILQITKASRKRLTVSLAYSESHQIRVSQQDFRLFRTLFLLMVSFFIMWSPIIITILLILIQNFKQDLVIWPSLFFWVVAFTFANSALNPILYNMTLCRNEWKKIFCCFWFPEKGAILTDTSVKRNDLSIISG
As to the kind of experiment: Human GPR120 Calcium-Release Assay (aequorin luminescence, CHO-K1 cells). It counts as cell-based. Particulars: pEC50=−log(EC50) from curve fit; short variant of human GPR120 in CHO-K1 with Gα16 and apoaequorin; read-out: Ca2+ pEC50 (converted).
Excerpt: This in vitro assay tests compounds' ability to activate heterologously expressed human GPR120 via G-protein coupling leading to generation of inositol 1,4,5-triphosphate and mobilization of intracellular calcium. This functional cellular assay is based on the luminescence of mitochondrial aequorin following intracellular Ca^2+ release. Aequorin is a photoprotein isolated from the jellyfish Aequorea victoria. The active protein is formed in the presence of molecular oxygen from apoaequorin and its cofactor coelenterazine. Binding of Ca^2+ to the active protein induces a conformational change, resulting in oxidation of coelenterazine and subsequent blue luminescence.
The short variant of the human GPR120 receptor (GenBank accession Number AAI01176) was stably expressed in a CHO-K1 cell line coexpressing Gα16 and mitochondrial apoaequorin.
Cells were grown to mid-log phase in culture media without antibiotics, were detached with PBS/EDTA, centrifuged and resuspended in assay buffer (DMEM-F12 medium with 15 mM HEPES pH 7.0 and 0.1% protease free BSA) at a concentration of 10^6 cells/mL. Cells were incubated at room temperature for at least 4 hours with 5 μM coelenterazine h.
Test compounds were dissolved in 100% DMSO to a concentration of 20 mM to provide stock solutions. Serial dilutions were performed from stock solutions in 100% DMSO to obtain intermediate concentrations 200-fold higher than the concentrations to be tested. Each sample was diluted 100-fold into assay buffer. 50 μl of these compound solutions were dispensed into each well of 96-well assay plates. The final concentration of compounds tested in the assay ranged from 5 nM to 100 μM. α-Linolenic acid was used as a reference compound. Each test was performed in duplicate.
To start the assay, 50 μl of cell suspension were added to each well of the assay plate. The resulting luminescence was recorded using a Hamamatsu Functional Drug Screening System 6000 (FDSS 6000), and raw data were expressed as relative light units (RLU).
as §1
Reported below in Table 1 are pEC50 values (pEC50=−log(EC50) from curve fit) for representative compounds of Formula I in this assay, Ca2+pEC50.

Molecules are shown by their SMILES.

Take `COc1ccc(Oc2nccc(N3Cc4ccccc4S3(=O)=O)n2)cc1` [Compound 44]: the EC50 in assay [1] was above 10000 nM; in assay [2], 1580 nM.
The corresponding values for `CCOc1nccc(N2Cc3ccccc3S2(=O)=O)n1` [Compound 67] are above 10000 nM and 6310 nM.
Turning to `Cc1cncc(Oc2nccc(N3Cc4ccccc4S3(=O)=O)n2)c1` [Compound 19], the EC50 was 5010 nM in assay [1] and 794 nM in assay [2].
For `COc1cc(Oc2ccc(Cl)cc2)nc(N2Cc3ccccc3S2(=O)=O)n1` [Compound 96] the same measures were 1000 nM and above 10000 nM.
For `O=S1(=O)c2ccccc2CN1c1ccnc(Oc2ccccc2F)n1` [Compound 56] the same measures were above 10000 nM and 794 nM.
The corresponding values for `O=C1c2ccccc2CN1c1cccc(Oc2cccnc2)n1` [Compound 122] are above 10000 nM and 501 nM.
For the molecule `Cc1cc(Oc2nccc(N3Cc4ccccc4S3(=O)=O)n2)ccc1Cl` [Compound 35], the EC50 in assay [1] was 1580 nM; in assay [2], above 100000 nM.
For `COc1cc(N2Cc3ccccc3S2(=O)=O)nc(Oc2cccnc2)n1` [Compound 79] the same measures were 1580 nM and 501 nM.
Regarding `O=S1(=O)c2ccccc2CN1c1cc(C(F)(F)F)nc(Oc2ccc(Cl)cc2)n1` [Compound 97], the results for the EC50 in assay [1] and in assay [2] were 631 nM and 1000 nM, respectively.
For `O=S1(=O)c2ccccc2CN1c1ccnc(Oc2ccc(Br)cc2)n1` [Compound 41] the same measures were 2510 nM and 794 nM.
The corresponding values for `Cc1ccc(Oc2nccc(N3Cc4ccccc4S3(=O)=O)n2)cc1Cl` [Compound 34] are 1580 nM and 200 nM.
`O=S1(=O)c2ccccc2CN1c1ccnc(OCc2ccccn2)n1` [Compound 72]: the EC50 in assay [1] was above 10000 nM; in assay [2] it was above 100000 nM.
On to `COc1cc(Oc2cccnc2)nc(N2Cc3ccccc3S2(=O)=O)n1` [Compound 80], for which the values for the EC50 in assay [1] and in assay [2] were 501 nM and 2510 nM, respectively.
The corresponding values for `Cc1cc(Oc2ccc(Cl)cc2)nc(N2Cc3ccccc3S2(=O)=O)n1` [Compound 87] are 794 nM and 1580 nM.
For `CNC(=O)c1cc(N2Cc3ccccc3S2(=O)=O)nc(Oc2ccc(Cl)cc2)n1` [Compound 89] the same measures were 2510 nM and 20000 nM.
Turning to `COc1cc(N2Cc3ccccc3S2(=O)=O)nc(Oc2ccc(F)cc2)n1` [Compound 99], the EC50 in assay [1] was 501 nM; in assay [2], 158 nM.
For `O=S1(=O)c2ccccc2CN1c1ccnc(Oc2ccccc2Cl)n1` [Compound 20] the same measures were 6310 nM and 3980 nM.
The corresponding values for `Cc1cc(Oc2ccc(Cl)cc2)nc(N2Cc3ccccc3S2(=O)=O)c1` [Compound 131] are 158 nM and 316 nM.
For `O=S1(=O)c2ccccc2CN1c1nccc(Oc2cccnc2)n1` [Compound 114] the same measures were 12600 nM and 15800 nM.
Take `O=S1(=O)c2ccccc2CN1c1cccc(Oc2cccc(Cl)c2)n1` [Compound 123]: the EC50 in assay [1] is above 31600 nM; in assay [2] it was above 100000 nM.
The corresponding values for `O=S1(=O)c2ccccc2CN1c1ccnc(Oc2cccc(Cl)c2)n1` [Compound 22] are 1580 nM and above 100000 nM.
For `O=S1(=O)c2ccccc2CN1c1ccnc(Oc2ccc(F)cc2)n1` [Compound 42] the same measures were 1000 nM and 316 nM.
For `Cc1cc(N2Cc3ccccc3S2(=O)=O)nc(Oc2cccnc2)n1` [Compound 77] the same measures were 2510 nM and 1000 nM.
`O=S1(=O)c2ccccc2CN1c1ccnc(Oc2ccc(Cl)cc2)n1` [Compound 21]: the values for the EC50 in assay [1] and in assay [2] were above 7940 nM and 501 nM, respectively.
The corresponding values for `CN1CCC(Oc2nccc(N3Cc4ccccc4S3(=O)=O)n2)C1` (stereo not shown) [Compound 63] are 501 nM and above 100000 nM.
For `O=S1(=O)c2ccccc2CN1c1ccnc(Oc2ccccc2)n1` [Compound 16] the same measures were 6310 nM and 1260 nM.
